From patent publication US4698327A, “Novel glycopeptide derivatives” (priority 1986, dated 1987) come the findings set out here.

Converted amounts (≈) assume the structure as drawn.

Assay [1] deals with Staphylococcus aureus V41. The assay is described as follows: MIC, standard agar-dilution assay. It counts as cell-based.
For assay [2], the system named is Staphylococcus aureus X400. Description: MIC, standard agar-dilution assay. It counts as cell-based.
Assay [3] deals with Staphylococcus aureus S13E. It counts as cell-based. Particulars: agar dilution.
In assay [4] the test system is Staphylococcus epidermidis EPI1. It counts as cell-based. As to conditions: agar dilution.
The test system of assay [5] is Staphylococcus epidermidis 222. Description: MIC, standard agar-dilution assay. It counts as cell-based.
Assay [6] has as its system Streptococcus pyogenes C203. The assay is described as follows: MIC, standard agar-dilution assay. The assay is classed as cell-based.
Assay [7] concerns Streptococcus pneumoniae Park 1. It counts as cell-based. As to conditions: agar dilution.
Assay [8] concerns Streptococcus faecium ATCC 9790. Description: MIC, standard agar-dilution assay. It counts as cell-based.
In assay [9] the test system is Streptococcus sp. group D 2041. The assay is described as follows: MIC, standard agar-dilution assay. The assay is classed as cell-based.
Assay [10] has as its system Haemophilus influenzae C.L. The assay is described as follows: MIC, standard agar-dilution assay. The assay is classed as cell-based.
Assay [11] has as its system Haemophilus influenzae 76. The assay is described as follows: MIC, standard agar-dilution assay. It counts as cell-based.
The next assay concerns Escherichia coli N10. The assay is described as follows: MIC, standard agar-dilution assay. It counts as cell-based.
In another assay the test system is Escherichia coli EC14. Description: MIC, standard agar-dilution assay. It counts as cell-based.
The subject of another assay is Escherichia coli TEM. Description: MIC, standard agar-dilution assay. The assay is classed as cell-based.
The test system of assay [12] is Klebsiella pneumoniae X26. The assay is described as follows: MIC, standard agar-dilution assay. It counts as cell-based.
For assay [13], the system named is Klebsiella pneumoniae X68. Description: MIC, standard agar-dilution assay. It counts as cell-based.
For assay [14], the system named is Klebsiella pneumoniae KAE. The assay is described as follows: MIC, standard agar-dilution assay. It counts as cell-based.
For assay [15], the system named is Staphylococcus aureus NRRL B313. Particulars: agar dilution.

`CCCCNC1(C)CC(OC2C(Oc3c4cc5cc3Oc3ccc(cc3Cl)C(O)C3NC(=O)C(NC(=O)C5NC(=O)C(CC(N)=O)NC(=O)C(NC(=O)C(CC(C)C)NC)C(O)c5ccc(c(Cl)c5)O4)c4ccc(O)c(c4)-c4c(O)cc(O)cc4C(C(=O)O)NC3=O)OC(CO)C(O)C2O)OC(C)C1O` (stereo not drawn) [Compound 17, N^van --(n-butyl)vancomycin]: the MIC in assay [1] was found to be 1 µg/mL (≈ 0.664 µM); in [2] it was 1 µg/mL (≈ 0.664 µM); in assay [3] it was 1 µg/mL (≈ 0.664 µM); in assay [4] it was 4 µg/mL (≈ 2.66 µM); in [5] it was 2 µg/mL (≈ 1.33 µM); in [6], 1 µg/mL (≈ 0.664 µM). For the same molecule, the MIC in [7] was 0.5 µg/mL (≈ 0.332 µM); in assay [8], 2 µg/mL (≈ 1.33 µM); in assay [9] it was 4 µg/mL (≈ 2.66 µM); in assay [10] it was 128 µg/mL (≈ 85 µM); in assay [11], 128 µg/mL (≈ 85 µM); in the assay on Escherichia coli N10, > 128 µg/mL. In addition, the MIC with Escherichia coli EC14 was > 128 µg/mL; in the assay with Escherichia coli TEM it was > 128 µg/mL; in [12], > 128 µg/mL; in [13] it was > 128 µg/mL; in [14], > 128 µg/mL; in assay [15], 1 µg/mL (≈ 0.664 µM).

In the case of `CCCCNC1(C)CC(OC2C(Oc3c4cc5cc3Oc3ccc(cc3Cl)C(O)C(NC(=O)C(CC(C)C)N(C)CCCC)C(=O)NC(CC(N)=O)C(=O)NC5C(=O)NC3C(=O)NC(C(=O)NC(C(=O)O)c5cc(O)cc(O)c5-c5cc3ccc5O)C(O)c3ccc(c(Cl)c3)O4)OC(CO)C(O)C2O)OC(C)C1O` (stereo not drawn) [Compound 19, N^van, N^leu --di(n-butyl)vancomycin], the MIC was 1 µg/mL (≈ 0.64 µM) in assay [1]; 1 µg/mL (≈ 0.64 µM) in assay [2]; 1 µg/mL (≈ 0.64 µM) in [3]; 2 µg/mL (≈ 1.28 µM) in assay [4]; 1 µg/mL (≈ 0.64 µM) in assay [5]; 0.5 µg/mL (≈ 0.32 µM) in [6]. Besides, the MIC is 0.5 µg/mL (≈ 0.32 µM) in [7]; 1 µg/mL (≈ 0.64 µM) in [8]; 2 µg/mL (≈ 1.28 µM) in assay [9]; > 128 µg/mL in [10]; 128 µg/mL (≈ 82 µM) in [11]; > 128 µg/mL with Escherichia coli N10. The MIC against Escherichia coli EC14 was > 128 µg/mL; with Escherichia coli TEM, > 128 µg/mL; in [12], > 128 µg/mL; in assay [13], > 128 µg/mL; in assay [14] it was > 128 µg/mL; in assay [15] it was 0.5 µg/mL (≈ 0.32 µM).

For the molecule `CCCNC1(C)CC(OC2C(Oc3c4cc5cc3Oc3ccc(cc3Cl)C(O)C3NC(=O)C(NC(=O)C5NC(=O)C(CC(N)=O)NC(=O)C(NC(=O)C(CC(C)C)NC)C(O)c5ccc(c(Cl)c5)O4)c4ccc(O)c(c4)-c4c(O)cc(O)cc4C(C(=O)O)NC3=O)OC(CO)C(O)C2O)OC(C)C1O` (stereo not drawn) [Compound 20, N^van --(n-propyl)vancomycin], the MIC was 1 µg/mL (≈ 0.671 µM) in assay [1]; 1 µg/mL (≈ 0.671 µM) in [2]; 1 µg/mL (≈ 0.671 µM) in assay [3]; 4 µg/mL (≈ 2.68 µM) in assay [4]; 1 µg/mL (≈ 0.671 µM) in [5]; 0.5 µg/mL (≈ 0.335 µM) in assay [6]. Further, the MIC is 0.5 µg/mL (≈ 0.335 µM) in assay [7]; 1 µg/mL (≈ 0.671 µM) in [8]; 1 µg/mL (≈ 0.671 µM) in assay [9]; 128 µg/mL (≈ 85.8 µM) in assay [10]; 128 µg/mL (≈ 85.8 µM) in assay [11]; > 128 µg/mL in the assay with Escherichia coli N10. Moreover, the MIC was > 128 µg/mL in the assay on Escherichia coli EC14; > 128 µg/mL in the assay on Escherichia coli TEM; > 128 µg/mL in [12]; > 128 µg/mL in assay [13]; > 128 µg/mL in [14]; 1 µg/mL (≈ 0.671 µM) in [15].

For `CCCNC1(C)CC(OC2C(Oc3c4cc5cc3Oc3ccc(cc3Cl)C(O)C(NC(=O)C(CC(C)C)N(C)CCC)C(=O)NC(CC(N)=O)C(=O)NC5C(=O)NC3C(=O)NC(C(=O)NC(C(=O)O)c5cc(O)cc(O)c5-c5cc3ccc5O)C(O)c3ccc(c(Cl)c3)O4)OC(CO)C(O)C2O)OC(C)C1O` (stereo not drawn) [Compound 22, N^van, N^leu --di(n-propyl)vancomycin], the MIC in [1] was 2 µg/mL (≈ 1.3 µM); in [2], 2 µg/mL (≈ 1.3 µM); in assay [3], 2 µg/mL (≈ 1.3 µM); in assay [4], 4 µg/mL (≈ 2.61 µM); in assay [5], 4 µg/mL (≈ 2.61 µM); in assay [6], 2 µg/mL (≈ 1.3 µM). Further, the MIC in assay [7] is 1 µg/mL (≈ 0.652 µM); in assay [8] it was 2 µg/mL (≈ 1.3 µM); in [9], 8 µg/mL (≈ 5.22 µM); in assay [10], > 128 µg/mL; in assay [11], 128 µg/mL (≈ 83.5 µM); against Escherichia coli N10, > 128 µg/mL. The MIC against Escherichia coli EC14 is > 128 µg/mL; against Escherichia coli TEM, > 128 µg/mL; in assay [12], > 128 µg/mL; in [13], > 128 µg/mL; in assay [14], > 128 µg/mL; in assay [15] it was 2 µg/mL (≈ 1.3 µM).

In the case of `CCNC1(C)CC(OC2C(Oc3c4cc5cc3Oc3ccc(cc3Cl)C(O)C(NC(=O)C(CC(C)C)N(C)CC)C(=O)NC(CC(N)=O)C(=O)NC5C(=O)NC3C(=O)NC(C(=O)NC(C(=O)O)c5cc(O)cc(O)c5-c5cc3ccc5O)C(O)c3ccc(c(Cl)c3)O4)OC(CO)C(O)C2O)OC(C)C1O` (stereo not drawn) [Compound 24, N^van, N^leu --diethylvancomycin], the MIC in assay [1] stood at 1 µg/mL (≈ 0.664 µM); in [2], 2 µg/mL (≈ 1.33 µM); in [3] it was 1 µg/mL (≈ 0.664 µM); in [4], 2 µg/mL (≈ 1.33 µM); in [5] it was 2 µg/mL (≈ 1.33 µM); in assay [6] it was 1 µg/mL (≈ 0.664 µM). Also, the MIC in assay [7] was 1 µg/mL (≈ 0.664 µM); in assay [8], 2 µg/mL (≈ 1.33 µM); in assay [9], 4 µg/mL (≈ 2.66 µM); in assay [10] it was < 128 µg/mL; in assay [11], 128 µg/mL (≈ 85 µM); with Escherichia coli N10, > 128 µg/mL. Besides, the MIC in the assay with Escherichia coli EC14 is > 128 µg/mL; in the assay on Escherichia coli TEM it was > 128 µg/mL; in assay [12], > 128 µg/mL; in assay [13] it was > 128 µg/mL; in [14] it was > 128 µg/mL; in assay [15], 1 µg/mL (≈ 0.664 µM).

`CCCCCCCCCCNC1(C)CC(OC2C(Oc3c4cc5cc3Oc3ccc(cc3Cl)C(O)C3NC(=O)C(NC(=O)C5NC(=O)C(CC(N)=O)NC(=O)C(NC(=O)C(N)CC(C)C)C(O)c5ccc(c(Cl)c5)O4)c4ccc(O)c(c4)-c4c(O)cc(O)cc4C(C(=O)O)NC3=O)OC(CO)C(O)C2O)OC(C)C1O` (stereo not drawn) [Compound 26, N^van --(n-decyl)-A51568A]: the MIC was 0.25 µg/mL (≈ 0.159 µM) in assay [1]; 0.25 µg/mL (≈ 0.159 µM) in assay [2]; 0.25 µg/mL (≈ 0.159 µM) in assay [3]; 0.5 µg/mL (≈ 0.317 µM) in [4]; 0.25 µg/mL (≈ 0.159 µM) in assay [5]; 0.25 µg/mL (≈ 0.159 µM) in assay [6]. The MIC was 0.25 µg/mL (≈ 0.159 µM) in [7]; 0.5 µg/mL (≈ 0.317 µM) in assay [8]; 0.5 µg/mL (≈ 0.317 µM) in assay [9]; 128 µg/mL (≈ 81.2 µM) in assay [10]; 128 µg/mL (≈ 81.2 µM) in [11]; > 128 µg/mL in the assay on Escherichia coli N10. Also, the MIC against Escherichia coli EC14 is > 128 µg/mL; against Escherichia coli TEM, > 128 µg/mL; in [12], > 128 µg/mL; in assay [13] it was > 128 µg/mL; in [14] it was > 128 µg/mL; in assay [15] it was 0.25 µg/mL (≈ 0.159 µM).

With `CCCCCCCCCCNC1(C)CC(OC2C(Oc3c4cc5cc3Oc3ccc(cc3Cl)C(O)C(NC(=O)C(CC(C)C)[N+](C)(C)C)C(=O)NC(CC(N)=O)C(=O)NC5C(=O)NC3C(=O)NC(C(=O)NC(C(=O)[O-])c5cc(O)cc(O)c5-c5cc3ccc5O)C(O)c3ccc(c(Cl)c3)O4)OC(CO)C(O)C2O)OC(C)C1O` (stereo not drawn) [Compound 124, N^van --(n-decyl)-M43A], the MIC in assay [1] stood at 0.5 µg/mL (≈ 0.309 µM); in [2], 0.5 µg/mL (≈ 0.309 µM); in [3], 0.5 µg/mL (≈ 0.309 µM); in assay [4], 1 µg/mL (≈ 0.618 µM); in [5] it was 0.5 µg/mL (≈ 0.309 µM); in [6] it was 0.25 µg/mL (≈ 0.155 µM). The MIC in assay [7] was 0.5 µg/mL (≈ 0.309 µM); in [8], 0.5 µg/mL (≈ 0.309 µM); in assay [9], 0.5 µg/mL (≈ 0.309 µM); in assay [10] it was > 64 µg/mL; in [11], > 64 µg/mL; in the assay on Escherichia coli N10, > 64 µg/mL. Also, the MIC in the assay on Escherichia coli EC14 was 64 µg/mL (≈ 39.6 µM); in the assay with Escherichia coli TEM it was > 64 µg/mL; in [12], > 64 µg/mL; in assay [13], > 64 µg/mL; in assay [14] it was > 64 µg/mL; in assay [15] it was 0.5 µg/mL (≈ 0.309 µM).
